Source: ChEMBL document CHEMBL1201862, “PubChem BioAssay data set” (2004)
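Cells were grown in 96-well plates and exposed to each compound for 48 hours at five concentrations; endpoints were interpolated linearly between bracketing concentrations, or set to the highest concentration if not reached. The concentration for 50% growth inhibition is given as GI50.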 Active and inactive are the calls of the source. No stated cut-off is given here; in the data, active = GI50 up to about 1.1 µM and inactive = higher. Peptide text beside a SMILES is read from it. * marks the point of attachment. OSu = O=C1CCC(=O)N1O*

Assays:
Test in all cases: DTP human tumour cell line panel, 48 h
HT-29 = test system: HT-29
A549 = test system: A549
SN12C = test system: SN12C
T47D = test system: T47D
MDA-MB-435 = test system: MDA-MB-435
SF-295 = test system: SF-295
786-0 = test system: 786-0
SNB-75 = test system: SNB-75
UACC-62 = test system: UACC-62
MDA-N = test system: MDA-N
K562 = test system: K562
IGROV-1 = test system: IGROV-1
LOX IMVI = test system: LOX IMVI
SK-OV-3 = test system: SK-OV-3
NCI-H226 = test system: NCI-H226
COLO 205 = test system: COLO 205
SF-539 = test system: SF-539
M14 = test system: M14
DU-145 = test system: DU-145
CAKI-1 = test system: CAKI-1
MOLT-4 = test system: MOLT-4
Malme-3M = test system: Malme-3M
HCC 2998 = test system: HCC 2998
OVCAR-5 = test system: OVCAR-5
HL-60 = test system: HL-60
HOP-92 = test system: HOP-92
Hs-578T = test system: Hs-578T
TK-10 = test system: TK-10
EKVX = test system: EKVX
SK-MEL-28 = test system: SK-MEL-28
ACHN = test system: ACHN
RXF 393 = test system: RXF 393
OVCAR-3 = test system: OVCAR-3
SF-268 = test system: SF-268
U-251 = test system: U-251
KM12 = test system: KM12
NCI/ADR-RES = test system: NCI/ADR-RES
UO-31 = test system: UO-31
PC-3 = test system: PC-3
SK-MEL-2 = test system: SK-MEL-2
BT-549 = test system: BT-549
HCT-116 = test system: HCT-116
MCF7 = test system: MCF7
OVCAR-8 = test system: OVCAR-8
MDA-MB-231 = test system: MDA-MB-231
UACC-257 = test system: UACC-257
A498 = test system: A498
SW-620 = test system: SW-620
CCRF-CEM = test system: CCRF-CEM
SK-MEL-5 = test system: SK-MEL-5
NCI-H460 = test system: NCI-H460
RPMI-8226 = test system: RPMI-8226
SR = test system: SR
HCT-15 = test system: HCT-15
HOP-62 = test system: HOP-62
SNB-19 = test system: SNB-19
NCI-H23 = test system: NCI-H23

Measured: GI50

CC12CCC3c4cc(Br)c(O)c(Br)c4CCC3C1CCC2O (stereo not given)
inactive: HT-29 15.4 µM | A549 19.5 µM | SN12C 19 µM | T47D 26.2 µM | MDA-MB-435 4.23 µM | SF-295 16.3 µM | 786-0 18.7 µM | SNB-75 16.3 µM | UACC-62 14 µM | MDA-N 3.98 µM | K562 6.18 µM | IGROV-1 15.8 µM | LOX IMVI 18.1 µM | SK-OV-3 23.5 µM | NCI-H226 16.7 µM | COLO 205 25.2 µM | SF-539 18.5 µM | M14 32.7 µM | DU-145 34.9 µM | CAKI-1 15.6 µM | MOLT-4 17.7 µM | Malme-3M 14.3 µM | HCC 2998 12.7 µM | OVCAR-5 25.7 µM | HL-60 14.8 µM | HOP-92 > 10 µM | Hs-578T 17.9 µM | TK-10 19.8 µM | EKVX 15.2 µM | SK-MEL-28 17.9 µM | ACHN 22.5 µM | RXF 393 12.7 µM | OVCAR-3 18.9 µM | SF-268 19.8 µM | U-251 15 µM | KM12 12.9 µM | NCI/ADR-RES 18.5 µM | UO-31 15.8 µM | PC-3 29.4 µM | SK-MEL-2 19.1 µM | BT-549 16 µM | HCT-116 19.1 µM | MCF7 27.2 µM | OVCAR-8 14 µM | MDA-MB-231 13.3 µM | UACC-257 17.8 µM | A498 18.7 µM | SW-620 14.2 µM | CCRF-CEM 24.3 µM

NCCCCC(NC(=O)C(N)Cc1ccc(O)cc1)C(=O)NC(CCCCN)C(=O)NC(CCCCN)C(=O)ON1C(=O)CCC1=O (stereo not given) (H-YKKK-OSu; configuration not given here)
> 100 µM: HCT-15
inactive: HT-29 > 100 µM | A549 > 100 µM | SN12C > 100 µM | T47D 49.5 µM | SK-MEL-5 > 100 µM | 786-0 > 100 µM | SNB-75 > 100 µM | UACC-62 > 100 µM | MDA-N > 100 µM | K562 > 100 µM | IGROV-1 > 100 µM | NCI-H460 > 100 µM | NCI-H226 > 100 µM | COLO 205 > 100 µM | M14 > 100 µM | RPMI-8226 > 100 µM | MOLT-4 > 100 µM | Malme-3M > 100 µM | HCC 2998 > 100 µM | OVCAR-5 > 100 µM | HL-60 > 100 µM | HOP-92 > 100 µM | Hs-578T > 100 µM | SR > 100 µM | TK-10 > 100 µM | EKVX > 100 µM | SK-MEL-28 > 100 µM | ACHN > 100 µM | RXF 393 > 100 µM | U-251 > 100 µM | HOP-62 > 100 µM | KM12 > 100 µM | SNB-19 > 100 µM | UO-31 > 100 µM | PC-3 > 100 µM | SK-MEL-2 > 100 µM | BT-549 > 100 µM | HCT-116 > 100 µM | NCI-H23 > 100 µM | MCF7 > 100 µM | OVCAR-8 > 100 µM | MDA-MB-231 > 100 µM | UACC-257 > 100 µM | A498 > 100 µM | SW-620 > 100 µM
